Assay results taken from PMC3302206 (Biochemistry, 2012).
Converted amounts (≈) assume the structure as drawn. Ends that are not written are not given here.

How the values were obtained:
[1] = tested on: E. coli K12; type: cell-based, Escherichia coli; details: wild type strain; broth microdilution, measured as described (ref 18 protocol)
[2] = tested on: wild type S. aureus; type: cell-based, Staphylococcus aureus
[3] = tested on: S. aureus mprF mutant; type: cell-based, Staphylococcus aureus; details: for MBC, S. aureus mprF mutant, −C: absence of carbonate; for MBC, S. aureus mprF mutant, +C: carbonate present
[4] = tested on: S. aureus mprF mutant; type: cell-based, Staphylococcus aureus; details: for MIC, S. aureus mprF mutant, −C: absence of carbonate; for MIC, S. aureus mprF mutant, +C: physiological concentration of carbonate present
[5] = tested on: wild type S. aureus Rosenbach strain; type: cell-based, Staphylococcus aureus; details: 16 h
[6] = tested on: E. coli DC2; type: cell-based, Escherichia coli; details: DC2, 16 h
[7] = tested on: Staphylococcus aureus UAMS-1; type: cell-based; details: clinical isolate

Compound | MIC, E. coli K12 [1] [µM] | MBC, WT S. aureus, +C [2] [µM] | MBC, WT S. aureus, −C [2] [µM] | MBC, S. aureus mprF mutant, −C [3] [µM] | MBC, S. aureus mprF mutant, +C [3] [µM] | MIC, S. aureus mprF mutant, −C [4] [µM] | MIC, S. aureus mprF mutant, +C [4] [µM] | MIC, WT S. aureus, +C [5] [µM] | MIC, WT S. aureus, −C [5] [µM] | MIC, E. coli DC2 [6] [µM] | MIC, Staphylococcus aureus UAMS-1 [7] [µM]
CC[C@H](C)[C@H](NC(=O)[C@H](CCCCN)NC(=O)[C@H](CCC(=O)O)NC(=O)[C@H](CCCCN)NC(=O)[C@H](CO)NC(=O)[C@H](CCCCN)NC(=O)[C@H](CCCNC(=N)N)NC(=O)[C@H](Cc1ccccc1)NC(=O)[C@H](Cc1ccccc1)NC(=O)[C@H](CC(=O)O)NC(=O)CNC(=O)[C@H](CC(C)C)NC(=O)[C@@H](N)CC(C)C)C(=O)NCC(=O)N[C@@H](CCCCN)C(=O)N[C@@H](CCC(=O)O)C(=O)N[C@@H](Cc1ccccc1)C(=O)N[C@@H](CCCCN)C(=O)N[C@@H](CCCNC(=N)N)C(=O)N[C@H](C(=O)N[C@H](C(=O)N[C@@H](CCC(N)=O)C(=O)N[C@@H](CCCNC(=N)N)C(=O)N[C@H](C(=O)N[C@@H](CCCCN)C(=O)N[C@@H](CC(=O)O)C(=O)N[C@@H](Cc1ccccc1)C(=O)N[C@@H](CC(C)C)C(=O)N[C@@H](CCCNC(=N)N)C(=O)N[C@@H](CC(N)=O)C(=O)N[C@@H](CC(C)C)C(=O)N[C@H](C(=O)N1CCC[C@H]1C(=O)N[C@@H](CCCNC(=N)N)C(=O)N[C@H](C(=O)N[C@@H](CCC(=O)O)C(=O)N[C@@H](CO)C(=O)O)[C@@H](C)O)C(C)C)[C@@H](C)CC)C(C)C)[C@@H](C)CC [LL-37] | 5 (≈ 22.5 µg/mL) |  |  |  |  |  |  |  |  |  | 
LLGDFFRKVKEKIGKEFKRIVQR [LL-23V9] |  | >24 | >24 | 3 to 6 | 6 to 12 | 6 | 0.35 to 0.7 | 12 | >24 | 2 | 
CC[C@H](C)[C@H](NC(=O)[C@H](CCCCN)NC(=O)[C@H](CCC(=O)O)NC(=O)[C@H](CCCCN)NC(=O)[C@@H](NC(=O)[C@H](CCCCN)NC(=O)[C@H](CCCNC(=N)N)NC(=O)[C@H](Cc1ccccc1)NC(=O)[C@H](Cc1ccccc1)NC(=O)[C@H](CC(=O)O)NC(=O)CNC(=O)[C@H](CC(C)C)NC(=O)[C@@H](N)CC(C)C)C(C)C)C(=O)NCC(=O)N[C@@H](CCCCN)C(=O)N[C@@H](CCC(=O)O)C(=O)N[C@@H](Cc1ccccc1)C(=O)N[C@@H](CCCCN)C(=O)N[C@@H](CCCNC(=N)N)C(=O)N[C@H](C(=O)N[C@H](C(=O)N[C@@H](CCC(N)=O)C(=O)N[C@@H](CCCNC(=N)N)C(=O)N[C@H](C(=O)N[C@@H](CCCCN)C(=O)N[C@@H](CC(=O)O)C(=O)N[C@@H](Cc1ccccc1)C(=O)N[C@@H](CC(C)C)C(=O)N[C@@H](CCCNC(=N)N)C(=O)N[C@@H](CC(N)=O)C(=O)N[C@@H](CC(C)C)C(=O)N[C@H](C(=O)N1CCC[C@H]1C(=O)N[C@@H](CCCNC(=N)N)C(=O)N[C@H](C(=O)N[C@@H](CCC(=O)O)C(=O)N[C@@H](CO)C(=O)O)[C@@H](C)O)C(C)C)[C@@H](C)CC)C(C)C)[C@@H](C)CC [LL-37V9] |  |  |  |  |  |  |  |  |  | 12 (≈ 54.1 µg/mL) | 
LLGDFFRKAKEKIGKEFKRIVQR [LL-23A9] |  | >24 | >24 | 6 to 12 | 6 | 6 | 0.35 to 0.7 | >24 | >24 | 9 | 
LLGDFFRKSKEKIGKEFKRIVQR [LL-23] |  | >24 | >24 | >24 | 12 | 24 | 3 | >24 | >24 | 9 | > 160
CC[C@H](C)[C@H](NC(=O)[C@H](CCCCN)NC(=O)[C@H](CCC(=O)O)NC(=O)[C@H](CCCCN)NC(=O)[C@H](C)NC(=O)[C@H](CCCCN)NC(=O)[C@H](CCCNC(=N)N)NC(=O)[C@H](Cc1ccccc1)NC(=O)[C@H](Cc1ccccc1)NC(=O)[C@H](CC(=O)O)NC(=O)CNC(=O)[C@H](CC(C)C)NC(=O)[C@@H](N)CC(C)C)C(=O)NCC(=O)N[C@@H](CCCCN)C(=O)N[C@@H](CCC(=O)O)C(=O)N[C@@H](Cc1ccccc1)C(=O)N[C@@H](CCCCN)C(=O)N[C@@H](CCCNC(=N)N)C(=O)N[C@H](C(=O)N[C@H](C(=O)N[C@@H](CCC(N)=O)C(=O)N[C@@H](CCCNC(=N)N)C(=O)N[C@H](C(=O)N[C@@H](CCCCN)C(=O)N[C@@H](CC(=O)O)C(=O)N[C@@H](Cc1ccccc1)C(=O)N[C@@H](CC(C)C)C(=O)N[C@@H](CCCNC(=N)N)C(=O)N[C@@H](CC(N)=O)C(=O)N[C@@H](CC(C)C)C(=O)N[C@H](C(=O)N1CCC[C@H]1C(=O)N[C@@H](CCCNC(=N)N)C(=O)N[C@H](C(=O)N[C@@H](CCC(=O)O)C(=O)N[C@@H](CO)C(=O)O)[C@@H](C)O)C(C)C)[C@@H](C)CC)C(C)C)[C@@H](C)CC [LL-37A9] |  |  |  |  |  |  |  |  |  | 6 (≈ 26.9 µg/mL) | 
